Test [1] addresses T1, soluble A-beta oligomers (beta-amyloid 1-42 oligomer, 20% biotin) (Homo sapiens, UniProt P05067).
T1 construct: 1 mg of human beta-amyloid 1-42 (H-1368, Bachem); purchased Bachem H-1368 (unlabelled), H-5642 (biotinylated)
As to the kind of experiment: SPA competition binding against tritium labeled 49b on soluble A-beta oligomers. Particulars: for % inhibition: 50 uM unlabeled competitor, 130 nM tritium labeled-49b; for IC50: 130 nM 3H-49b, unlabeled competitor. On the procedure: A. Soluble A-beta. 1 mg of human beta-amyloid 1-42 (H-1368, Bachem) and 500 uL of 1,1,1,3,3,3 hexafluoro-2-propanol (HFIP) (Aldrich) were chilled in separate bottles on ice for 30 minutes. Cold beta-amyloid 1-42 was solubilized with cold HFIP. The mixture was incubated for 1 hr at room temperature until it turned clear. The resulting solution was then dried to a film under vacuum. The film was dissolved again in cold HFIP and incubated another 1 hr at room temperature. The resulting solution was separated into aliquots in several microcentrifuge tubes. HFIP was removed under vacuum, and the films were stored at −20° C. until use. To prepare soluble oligomer, the film was dissolved in appropriate amount of dry DMSO (Sigma), and Ham's F12 media (Biosource) or PBS (Sigma, D8537) was added and incubated at 4° C. for 24 hours (final concentration of 200 uM or 0.9 mg/mL beta-amyloid in 2% DMSO). The tube containing the soluble oligomers was centrifuged at 13,000 rpm for 5 minutes, and its supernatant was transferred to a clean tube.
The three compounds shown in Table 1 were synthesized and evaluated for their ability to bind to soluble A-beta using the scintillation proximity assays (SPA) and/or AFM as described below. The percent inhibition reported was for 50 uM of the indicated unlabeled competitor and 130 nM of tritium labeled-49b.
(§1) For SPA and atomic force microscopy experiments, preparations of soluble oligomers and fibrils contained 20% biotinylated beta-amyloid 1-42 and 1-40, respectively (H-5642, H-5914, Bachem).
Lyophilized Streptavidin-Ysi beads (GE Healthcare) were reconstituted to 100 mg/mL in deionized water, and then further diluted in deionized water to give a suspension containing 0.25 mg/10 μL water. Unlabeled 49b, PIB and compound of formula III (353207) were dissolved in DMSO to give a final stock concentration of 15 mM.
For the saturation-binding assay, isotopic dilution of radiolabeled 49b with unlabeled 49b was performed. ^3H-49b was added to 500 uM of unlabeled 49b to a final concentration of 50 μCi/mL ^3H-49b. The probe solution was then serially diluted in PBS to give six solutions giving 6.6, 13.1, 26.3, 52.5, 105, or 210 uM in the final assay well. Each concentration of the probe solution was incubated with 12 μg beta-amyloid 1-42 oligomer (20% biotin) or 1-40 (20% biotin) fibrils in a total volume of 90 μL. Assays were incubated at room temp for 2 hrs before addition of 10 μL YSi-streptavidin (0.25 mg) SPA bead. Assays were set-up in triplicate in 96-well NBS plates (Costar). Assays were incubated overnight and counted the following morning. […] The specific activities of four probes were different, however the level of activity was the same at the concentrations where the probes were tested. […]

Test [2] concerns the target T1, soluble A-beta oligomers (beta-amyloid 1-42 oligomer, 20% biotin). Nature of the test: SPA saturation / direct binding of tritium labeled probes to soluble A-beta oligomers.
Method: For the saturation-binding assay, isotopic dilution of radiolabeled 49b with unlabeled 49b was performed. ^3H-49b was added to 500 uM of unlabeled 49b to a final concentration of 50 μCi/mL ^3H-49b. The probe solution was then serially diluted in PBS to give six solutions giving 6.6, 13.1, 26.3, 52.5, 105, or 210 uM in the final assay well. Each concentration of the probe solution was incubated with 12 μg beta-amyloid 1-42 oligomer (20% biotin) or 1-40 (20% biotin) fibrils in a total volume of 90 μL. Assays were incubated at room temp for 2 hrs before addition of 10 μL YSi-streptavidin (0.25 mg) SPA bead. Assays were set-up in triplicate in 96-well NBS plates (Costar). Assays were incubated overnight and counted the following morning. […] Assay conditions were the same as described in saturation binding assay.
(§2) Data analyses were performed using Sigma Plot or GraphPad Prism® version 4. Curves were fitted using non-linear regression. KD values and IC50 values were estimated from the binding curves.
A direct binding assay using tritium labeled 49b was performed against oligomers or fibrils by scintillation proximity assay (SPA). Beta-amyloid containing 20% biotin and tritiated 49b were incubated in solution for two hours prior to addition of the Ysi-Streptavidin beads.
In test [3] the target is T2, beta-amyloid 1-40 fibrils (20% biotin) (Homo sapiens, UniProt P05067).
T2 construct: Lyophilized human beta-amyloid 1-40 peptide (Catalog number H-1194, Bachem); purchased Bachem H-1194 (unlabelled), H-5914 (biotinylated)
As to the kind of experiment: SPA saturation binding of 3H-49b to 1-40 fibrils. Particulars: same conditions as for soluble oligomers; compared with oligomers. How it is done:
B. Insoluble A-beta (1-40) fibril formation: Lyophilized human beta-amyloid 1-40 peptide (Catalog number H-1194, Bachem) was solubilized with HFIP to produce a dry clear film following the process described above for beta-amyloid 1-42. The clear film of beta-amyloid 1-40 was diluted with 10 mM phosphate buffer, pH 7.4, containing 1 mM EDTA, such that final Aβ concentration was 0.5 mg/ml, then mixed briefly. The solution was incubated at 37° C. on an orbital shaker set at 200 rpm for 48 h. A cloudy solution was produced, and the fibril production was confirmed by measuring changes in fluorescence of Thioflavin T, as well as by atomic force microscopy and transmission electron microscopy. Fibrils were used immediately after their production was confirmed.
as §1
For the saturation-binding assay, isotopic dilution of radiolabeled 49b with unlabeled 49b was performed. ^3H-49b was added to 500 uM of unlabeled 49b to a final concentration of 50 μCi/mL ^3H-49b. The probe solution was then serially diluted in PBS to give six solutions giving 6.6, 13.1, 26.3, 52.5, 105, or 210 uM in the final assay well. […] Assays were incubated overnight and counted the following morning. […]

The target in the next test is 1-42 fibrils (Homo sapiens, UniProt P05067). Nature of the test: SPA binding of 3H-49b to 1-42 fibrils. As to conditions: same conditions used to measure binding to soluble oligomers.
The target in the next test is T3, Aβ 1-40 fibrils (Homo sapiens, UniProt P05067).
T3 construct: Lyophilized human beta-amyloid 1-40 peptide (Catalog number H-1194, Bachem); purchased Bachem H-1194 (unlabelled), H-5914 (biotinylated)
Nature of the test: SPA competition binding against 3H-PIB on A-beta fibrils. As to conditions: ~30 nM [3H]PIB, 10 μg Aβ 1-40 fibrils, unlabeled competitor.

The mark [4] stands for this setting: saturation binding with oligomers.

Experimental findings from patent US20090162280A1, “DETECTING SOLUBLE A-BETA” (GENERAL ELECTRIC COMPANY, priority 2007, published 2009) are described below.

T1 sequence (P05067 672-713): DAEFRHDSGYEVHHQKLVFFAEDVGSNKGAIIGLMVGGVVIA
T3 sequence (P05067 672-711): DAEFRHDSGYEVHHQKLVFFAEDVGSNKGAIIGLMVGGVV
Chain of 1-42 fibrils (P05067 672-713): as the sequence (P05067 672-713) above
T2 sequence (P05067 672-711): as the sequence (P05067 672-711) above
Method for Aβ 1-40 fibrils: For the ^3H-PIB binding reaction, 10 μg Aβ 1-40 fibrils were incubated with ˜30 nM [^3H]PIB in the presence of the unlabeled competitors in a total volume of 90 μl PBS. […] Non-specific binding wells contained PBS instead of fibril/oligomer. Assays were incubated at room temperature for 2 hr before addition of 10 μl YSi-streptavidin bead (0.13 mg). Assays were shaken for 1 min and then incubated overnight before counting the following morning using Microbeta.
as §2

As usually defined, the % inhibition is the change of the read-out against control, counted positive when it falls. A higher % inhibition goes with a strong effect. As to `CNc1ccc(-c2nc3ccc(O)cc3s2)cc1` [Formula I, 2-(4-methylamino)phenylbenzothiazol-6-ol, reference compound], the “% inhibition” value in test [1] was determined as 3%.
Broadly, the IC50 is the concentration that inhibits the measured activity by half. A higher IC50 goes with weaker potency in that assay. Consider `O=Cc1ccc(-c2oc3ccccc3c2CO)o1` [Formula II, 2-(2-formyl-5-furanyl)-3-hydroxymethyl benzofuran], for which the IC50 in test [1] came to 60 µM. Further, the Kd in test [2] (3H-49b isotopically diluted with unlabeled 49b, incubated with oligomers, read-out: binding constant (saturation binding)) was 50 µM. The “specificity, oligomers over fibrils” value in test [2] (direct binding of 3H-49b, oligomers versus fibrils) is given as “showed specificity to oligomers over fibrils”. Also, in test [2] (setting [4]), the Bmax was 60-80 nmol/mg beta-amyloid and the “molar ratio probe:beta-amyloid at Bmax” value is listed as 1 probe:3-4 beta-amyloid. The “binding to 1-40 fibrils” value in test [3] is on record as “Much less binding was observed”. At 1-42 fibrils, the “affinity for 1-42 fibrils” value is “no measurable affinity could be determined”. Also, the “competition of tritium labeled PIB binding to fibrils (in words)” value at Aβ 1-40 fibrils is given as “not competed”.
Turning to `O=C(Nc1ccc(O)c(C(=O)O)c1)c1ccc(-c2ccc(C(=O)Nc3ccc(O)c(C(=O)O)c3)cc2)cc1` [Formula III], in test [1], the IC50 lay within 1 to 7 µM and the “% inhibition” value is 82%. Moreover, at Aβ 1-40 fibrils, the “competition of tritium labeled PIB binding to fibrils (in words)” value is “did not compete”.
